# Measurements reported in ChEMBL document CHEMBL5113462, “Synthesis and evaluation of inhibitors of Mycobacterium tuberculosis UGM using bioisosteric replacement” (Bioorg Med Chem, 2022).
# Tested on: Mycobacterium tuberculosis variant bovis
# Assay: Antimycobacterial activity against Mycobacterium tuberculosis variant bovis BCG for 7 days by resazurin-based microdilution assay
# Type: functional
# Settings: 168 h, time 7 day
row,SMILES,MIC
1,O=C(/C=C/c1ccccc1)N[C@@H](Cc1ccc([N+](=O)[O-])cc1)C(=O)O,1270 µM
2,O=C(/C=C/c1ccccc1)N[C@@H](Cc1ccccc1)C(=O)O,> 400 µg/mL
3,CC[C@@H](CO)NCCN[C@@H](CC)CO [ETHAMBUTOL],4.9 µM
4,O=C(/C=C/c1ccccc1)N[C@@H](Cc1ccc(I)cc1)C(=O)O,237 µM
5,O=C(/C=C/c1ccccc1)N[C@@H](Cc1ccc(Br)cc1)C(=O)O,1070 µM
6,O=C(/C=C/c1ccccc1)N[C@@H](Cc1ccc(Cl)cc1)C(=O)O,606 µM
